From patent publication US5554630A, “Benzimidazole compounds” (NeuroSearch A/S, priority 1993, dated 1996)
Read-outs that look alike come from different tables or passages of the source.

Legend:
[1] = biological target: benzodiazepine receptor (GABAA receptor); test: in vitro inhibition of 3H-flunitrazepam binding (rat cerebral cortex membranes); parameters: species or system rat (male Wistar
Source text: At present two types of GABA receptors are known, the GABAA and the GABAB receptors. […] Activation of GABA receptors leads to alternations in membrane potential (hyperpolarization). The GABAA receptors are associated with chloride influx through its associated and integrated chloride channel, whereas GABAB receptor activation indirectly alters potassium and calcium channels as well as modifies second messenger production. The GABAA recognition sites can be activated by GABA, muscimol; and isoguvacine for example, but not by GABAB agonists such as for example baclofen. The modulatory GABAA recognition site at the benzodiazepine receptor sites can be selectively radiolabelled with 3H-flunitrazepam. The affinity of various potential ligands for the benzodiazepine receptor sites can thus be evaluated by estimating the ability of test compounds to displace 3H-flunitrazepam.
Tissue preparations are performed at zero to four degrees Celsius. Cerebral cortex from male Wistar rats (150-200 g) is homogenized in 2 times 10 ml Tris-HCl, 30 mM at pH 7.4 The resulting suspension is centrifuged at 40,000 g for 15 minutes. The pellet is washed three times with buffer, centrifuged at two degrees Celsius at 40,000 g for ten minutes. The washed pellet is homogenized in 2 times 10 ml of buffer and is thereafter incubated on a water bath at 37° C. for 30 minutes and is thereafter centrifuged at 40,000 g for 10 minutes. The pellet is then homogenized with buffer and is centrifuged at 0° C. for 10 minutes at 40,000 g. The final pellet is resuspended in 30 ml buffer and the preparation may thereafter be stored at -20° C. In the test situation the membrane preparation is thawed and centrifuged at 2° C. for ten minutes at 48,000 g. The pellet is then washed two times with 2 times 10 ml 50 mM Tris-citrate at pH 7.1 using an Ultra-Turrax homogenizer and centrifuged at 48,000 g for 10 minutes. The hereby obtained pellet is resuspended in 50 mM Tris-citrate at pH 7.1,500 ml buffer per gram of original tissue, and is then used for binding assays. Aliquots of 0.5 ml tissue is added to 0.025 ml of 3H-flunitrazepam, final concentration of 1 nM, and is mixed and incubated for 40 minutes at 2° C. Non-specificbinding is determined using clonazepam, at 100 ng/ml final concentration. After incubation 5 ml of icecold buffer is added to the samples and these are poured directly onto Whatman GF/C glass fibre filters under suction and is immediately washed with 5 ml icecold buffer. The amount of radioactivity on the filters is determined by conventional liquid scintillation counting. Specific binding is total binding minus non specific binding. Test value is calculated as the IC50 which is equivalent to the concentration which inhibits the specific binding by 50 percent.
The method used to determine in vitro inhibition of ^3 H-flunitrazepam binding is presented under the heading of Biology.

[2] = test system: GABAA receptor-ion channel complex (benzodiazepine receptor, mouse forebrain); test: in vivo inhibition of 3H-flunitrazepam binding in mouse forebrain; parameters: species or system mouse (female NMRI); conditions: i.p. 10 min before i.v. 3H-FNM, mice killed 20 min later, 30 min
[3] = test system: GABAA receptor-ion channel complex; conditions: background statement, in vitro; cited from earlier work
[4] = first table, 1 nM 3H-flunitrazepam, 40 min at 2° C, read-out: IC50
[5] = second table (R6/R11), 3H-flunitrazepam, read-out: in-vitro binding IC50

Row | Compound | IC50 [1, 4] [nM] | IC50 [1, 5] [nM] | in-vivo binding ED50 [2] [mg/kg] | binding to the GABAA receptor-ion channel complex (in words) [3]
1 | c1ccc(-c2ccc3c(c2)ncn3-c2cccc(-n3ccnc3)c2)cc1 [Compound 9a, 1-[3-(1-imidazolyl)-phenyl]-5-phenyl-benzimidazole] | 7.4 | 7.2 | 8.9 | –
2 | CON=Cc1ccc2c(c1)ncn2-c1cccc(-c2cccnc2)c1 [Compound 59a, 1-[3-(3-pyridyl)-phenyl]-5-methylaldoximo-benzimidazole] | – | 2 | 1.04 | –
3 | CC(C)c1ccc2c(c1)ncn2-c1cccc(-n2ccnc2)c1 [Compound 14a, 1-[3-(1-imidazolyl)-phenyl]-5-i-propyl-benzimidazole] | 0.6 | 0.6 | 1.2 | –
4 | Cc1ccc2c(c1)ncn2-c1cccc(-n2ccnc2)c1 [Compound 5a, 1-[3-(1-imidazolyl)-phenyl]-5-methyl-benzimidazole] | 1.2 | 1.2 | 0.8 | –
5 | c1cncc(-c2cccc(-n3cnc4cc(-c5ccoc5)ccc43)c2)c1 [Compound 45a, 1-[3-(3-pyridyl)-phenyl]-5-(3-furanyl)-benzimidazole] | 1.2 | 1.4 | 1.9 | –
6 | FC(F)(F)c1ccc2c(c1)ncn2-c1cccc(-n2ccnc2)c1 [Compound 3a, 1-(3-(1-Imidazolyl)-phenyl)-5 trifluoromethylbenzimidazole] | – | 16 | 7.3 | –
7 | O=Cc1ccc2c(c1)ncn2-c1cccc(-c2cccnc2)c1 [Compound 50a, 1-(3-(3-pyridyl)phenyl)-5-formylbenzimidazole] | – | 37 | > 3 | –
8 | COCc1ccc2c(c1)ncn2-c1cccc(-c2cccnc2)c1 [Compound 58a] | – | 15 | 1.7 | –
9 | c1cncc(-c2cccc(-n3cnc4cc(-n5ccnc5)ccc43)c2)c1 [Compound 56a] | – | 22 | 6.8 | –
10 | CC(C)(C)c1ccc2c(c1)ncn2-c1cccc(-c2cccnc2)c1 [Compound 22a, 1-[3-(3-pyridyl)-phenyl]-5-t-butyl-benzimidazole] | – | 10 | 16.3 | –
11 | Cc1noc(-c2cccc(-n3cnc4cc(C(C)(C)C)ccc43)c2)n1 [Compound 33a] | – | 13 | 8.2 | –
12 | CN1C(=O)c2ccccc2-n2cnc3cc(C(F)(F)F)cc1c32 [Compound 2f, 4-trifluoromethyl-6,7-dihydro-6-methyl-7-oxo-benzimidazo[3,4-ab][1,4]benzodiazepine] | 5.4 | – | – | –
13 | CC(C)(C)c1ccc2c(c1)ncn2-c1cccc(-n2ccnc2)c1 [Compound 6a, 1-[3-(1-imidazolyl)-phenyl]-5-t-butyl-benzimidazole] | 2.4 | 2.4 | 2.1 | –
14 | CC(C)c1ccc2c(c1)ncn2-c1cccc(-c2cccnc2)c1 [Compound 60a, 1-[3-(3-pyridyl)-phenyl]-5-i-propyl-benzimidazole] | – | 4.2 | 2.2 | –
15 | Cc1cn(-c2cccc(-n3cnc4cc(C(C)(C)C)ccc43)c2)cn1 [Compound 8a] | – | 11 | – | –
16 | O=CNc1ccc2c(c1)ncn2-c1cccc(-n2ccnc2)c1 [Compound 41a] | – | 13 | > 10.0 | –
17 | CC(C)OC(=O)c1ccc2c(c1)ncn2-c1cccc(-n2ccnc2)c1 [Compound 4a] | – | 11 | > 10.0 | –
18 | c1cncc(-c2cccc(-n3cnc4cc(-c5nc(C6CC6)no5)ccc43)c2)c1 [Compound 53a] | – | 28 | 24.0 | –
19 | ON=Cc1ccc2c(c1)ncn2-c1cccc(-c2cccnc2)c1 [Compound 52a, 1-(3-(3-pyridyl)phenyl)-5-aldoximobenzimidazole] | – | 3.3 | 1.6 | –
20 | CN1C(=O)CN=C(c2ccccc2F)c2cc([N+](=O)[O-])ccc21 [^3 H-FNM] | – | – | – | selectively and with high-affinity
21 | O=[N+]([O-])c1ccc2c(c1)ncn2-c1cccc(-c2cccnc2)c1 [Compound 24a] | – | 40 | 6.1 | –
22 | Cc1nccn1-c1cccc(-n2cnc3cc(-c4ccccc4)ccc32)c1 [Compound 38a, 1-[3-(1-(2-methylimidazolyl))-phenyl]-5-phenyl-benzimidazole] | 9 | 9 | 2.6 | –
23 | NC(=O)NN=Cc1ccc2c(c1)ncn2-c1cccc(-c2cccnc2)c1 [Compound 55a, 1-(3-(3-pyridyl)phenyl)-5-semicarbazonobenzimidazole] | – | 7.6 | > 3.0 | –
24 | Ic1ccc2c(c1)ncn2-c1cccc(-c2cccnc2)c1 [Compound 18a, 1-[3-(3-pyridyl)-phenyl]-5-iodo-benzimidazole] | 1.7 | 1.7 | 1.5 | –
25 | FC(F)(F)c1ccc2c(c1)ncn2-c1cccc(-n2cnc3ccccc32)c1 [Compound 39a, 1-[3-(1-benzimidazolyl)-phenyl]-5-trifluoromethyl-benzimidazole] | 9.2 | 9.2 | 7.5 | –
26 | c1cncc(-c2cccc(-n3cnc4cc(-c5ccco5)ccc43)c2)c1 [Compound 57a, 1-[3-(3-pyridyl)-phenyl]-5-(2-furanyl)-benzimidazole] | – | 4.3 | 4.8 | –
27 | CC(C)c1ccc2c(c1)ncn2-c1cccc(-n2cnc3ccccc32)c1 [Compound 34a, 1-[3-(1-benzimidazolyl)-phenyl]-5-i-propyl-benzimidazole] | 4.3 | 4.3 | 2.8 | –
